Key:
[1] = daily release or elution of Bimatoprost in vitro versus time (FIG. 8); assay type: physicochemical; details: four-hundred-day study
Source text: FIG. 8 is an exemplary graph of daily release or elution of a pharmaceutical or therapeutic agent in vitro versus time. […] The target release rate in this study on rabbits was 0.050 to 0.100 micrograms per day.

[2] = Bimatoprost sampled in the aqueous humor of dogs over time (FIG. 9); assay type: in vivo
Source text: FIG. 9 is an exemplary graph of a therapeutic agent delivered to the aqueous humor of an eye of canines versus time.
In this example, there was a low dose group of dogs (Grp 1), a mid-dose group of dogs (Grp 2), a high dose group of dogs (Grp 3), and a placebo group of dogs (Grp 4).

average release rate [1]: less than 0.100 micrograms per day | level of Bimatoprost in the aqueous humor (elution kinetics) ([2]; low dose (Grp 1), mid-dose (Grp 2), high dose (Grp 3) groups, study period of about one hundred thirteen days): zero-order elution rate | mean measurements of Bimatoprost in the aqueous humor (dose dependence) ([2]; low, mid and high dose groups, FIG. 9): increased with the higher doses
Structure (SMILES): CCNC(=O)CCC/C=C\C[C@@H]1[C@@H](/C=C/[C@@H](O)CCc2ccccc2)[C@H](O)C[C@@H]1O [Bimatoprost]
release rate over the study (release kinetics) [1]: essentially a zero-order and/or a steady state elution rate

From patent US20240024093A1, “INTRAOCULAR DRUG DELIVERY SYSTEMS AND METHODS OF USE” (SpyGlass Pharma, Inc., priority 2022, published 2024)
